Here are results for two compounds from publication PMC7866232, “New Substituted 5-Benzylideno-2-Adamantylthiazol[3,2-b][1,2,4]Triazol-6(5H)ones as Possible Anti-Inflammatory Agents” (Molecules, 2021).

One test deals with T1, human recombinant COX-2 (Homo sapiens, UniProt P35354).
T1 construct: purchased Cayman Chemical Co., Ann Arbor, MI, USA
T1 sequence (P35354 18-604): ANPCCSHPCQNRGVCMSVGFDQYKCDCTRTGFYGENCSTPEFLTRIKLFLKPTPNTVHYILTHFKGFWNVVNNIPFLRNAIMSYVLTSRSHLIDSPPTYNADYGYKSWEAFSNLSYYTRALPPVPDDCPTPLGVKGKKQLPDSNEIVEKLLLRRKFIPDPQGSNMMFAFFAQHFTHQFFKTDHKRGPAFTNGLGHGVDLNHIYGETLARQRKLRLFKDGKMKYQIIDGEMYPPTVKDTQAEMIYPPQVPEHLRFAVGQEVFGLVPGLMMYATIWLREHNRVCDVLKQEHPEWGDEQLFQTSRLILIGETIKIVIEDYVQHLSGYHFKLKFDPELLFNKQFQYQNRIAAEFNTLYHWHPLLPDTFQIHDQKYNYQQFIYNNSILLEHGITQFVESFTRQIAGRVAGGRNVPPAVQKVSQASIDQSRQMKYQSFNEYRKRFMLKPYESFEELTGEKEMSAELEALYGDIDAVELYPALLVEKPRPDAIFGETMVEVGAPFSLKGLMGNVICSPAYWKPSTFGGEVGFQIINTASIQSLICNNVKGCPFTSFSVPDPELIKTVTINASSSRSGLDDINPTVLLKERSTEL
The test can be described thus: COX inhibitor screening assay in vitro, COX-2. It is filed as biochemical. The settings on record: for inhibition at 200 µM: 0.1 μM arachidonic acid, read-out: COX-2 (%) inhibition. The method, then:
(§1) The COX-1 and COX-2 activities of the compounds were measured using ovine COX-1 and human recombinant COX-2 enzymes included in the “COX I inhibitor Screening Assay” kit provided by Cayman (Cayman Chemical Co., Ann Arbor, MI, USA). The assay directly measures PGF2 a produced by SnCl2 reduction of COX-derived PGH2. The prostanoid production was quantified via enzyme immunoassay using a broadly specific antibody that binds to all the major prostaglandin compounds. […]

Test [1] has as its system carrageenin-induced mouse paw edema. Put plainly: Carrageenin-induced mouse paw edema (CPE), in vivo anti-inflammatory activity. The settings on record: Mus musculus, ip, mice, 0.01 mmol/kg body weight intraperitoneally, given simultaneously with carrageenin (2%, 0.05 mL). The method, then:
The in vivo anti-inflammatory effect of the tested compounds was assessed by using the functional model of carrageenin-induced mouse paw edema and is presented as the percentage of inhibition of induction of edema at the right hind paw (Table 1).
Edema was measured by weight increase of the right hind paw in comparison to the […] left paw.
Twenty-five thiazolo[3,2-b]1,2,4-triazole derivatives, previously synthesized were evaluated for their anti-inflammatory activity, in vivo using groups of 6–10 mice of R’’’ strain.
The anti-inflammatory activity of the compounds synthesized was studied with the Carragenin-Induced Paw Edema acute inflammation test using an aqueous carrageenin solution (2%, 0,05 mL), [14] which was injected intradermally in the footpad of the right hind limb muscle (mice R’’’ groups of 6–10 animals), whereas the left end serves as a reference. In the experimental procedure both sex male mice were used, excluding pregnant. Animals were fasted during the time of the experiment. The tested compounds (0.01 mmol/kg body weight), were suspended in water, with few drops of Tween 80 and ground in a mortar before use and were given intraperitoneally simultaneously with the carrageenin injection.

The target of the next test is T2, ovine COX-1 (Ovis aries, UniProt P05979).
T2 construct: purchased Cayman Chemical Co., Ann Arbor, MI, USA
T2 sequence (P05979 25-600): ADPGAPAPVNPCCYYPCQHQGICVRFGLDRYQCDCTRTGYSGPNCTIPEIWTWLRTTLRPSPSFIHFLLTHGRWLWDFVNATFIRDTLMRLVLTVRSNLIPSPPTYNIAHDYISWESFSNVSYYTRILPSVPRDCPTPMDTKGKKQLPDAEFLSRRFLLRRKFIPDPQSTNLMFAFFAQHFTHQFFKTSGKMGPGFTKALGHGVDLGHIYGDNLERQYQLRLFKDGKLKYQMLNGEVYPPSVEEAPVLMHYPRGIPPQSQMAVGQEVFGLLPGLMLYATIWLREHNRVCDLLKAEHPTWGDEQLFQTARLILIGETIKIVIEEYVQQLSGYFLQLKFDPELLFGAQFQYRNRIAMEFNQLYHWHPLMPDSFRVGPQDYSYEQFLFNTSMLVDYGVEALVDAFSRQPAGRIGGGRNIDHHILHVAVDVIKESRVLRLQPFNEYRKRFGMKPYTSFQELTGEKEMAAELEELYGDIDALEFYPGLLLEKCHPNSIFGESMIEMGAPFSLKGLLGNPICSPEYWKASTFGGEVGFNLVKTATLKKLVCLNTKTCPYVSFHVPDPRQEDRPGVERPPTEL
Put plainly: COX inhibitor screening assay in vitro, COX-1. Type of test: biochemical. The conditions noted are these: at 200 μM; 0.1 μM arachidonic acid; read-out: COX-1 (%) inhibition. The method, then: as §1

The target of another test is T3, soybean lipoxygenase (Glycine max, UniProt P08170).
T3 sequence (P08170 1-839): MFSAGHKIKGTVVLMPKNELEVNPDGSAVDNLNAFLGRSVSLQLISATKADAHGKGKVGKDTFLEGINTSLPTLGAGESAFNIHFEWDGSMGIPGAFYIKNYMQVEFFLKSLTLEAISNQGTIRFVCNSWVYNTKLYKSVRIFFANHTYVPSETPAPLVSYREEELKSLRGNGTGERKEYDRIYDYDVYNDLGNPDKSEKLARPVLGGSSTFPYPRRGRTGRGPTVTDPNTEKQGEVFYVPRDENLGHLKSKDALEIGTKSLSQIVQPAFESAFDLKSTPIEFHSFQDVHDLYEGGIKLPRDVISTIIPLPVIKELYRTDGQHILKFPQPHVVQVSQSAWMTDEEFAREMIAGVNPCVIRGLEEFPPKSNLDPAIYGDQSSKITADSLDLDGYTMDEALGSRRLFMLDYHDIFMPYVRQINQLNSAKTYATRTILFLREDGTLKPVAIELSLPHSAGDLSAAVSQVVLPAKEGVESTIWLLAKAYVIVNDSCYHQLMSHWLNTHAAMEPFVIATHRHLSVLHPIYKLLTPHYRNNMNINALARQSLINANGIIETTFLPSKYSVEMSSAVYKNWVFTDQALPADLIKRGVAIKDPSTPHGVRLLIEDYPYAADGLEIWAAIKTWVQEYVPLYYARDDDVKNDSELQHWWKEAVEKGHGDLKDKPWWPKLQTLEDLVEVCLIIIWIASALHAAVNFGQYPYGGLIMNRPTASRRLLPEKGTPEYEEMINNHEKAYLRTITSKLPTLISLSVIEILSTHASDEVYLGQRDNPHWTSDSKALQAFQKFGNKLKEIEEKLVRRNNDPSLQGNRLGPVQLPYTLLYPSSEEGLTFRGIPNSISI
Put plainly: Soybean lipoxygenase inhibition in vitro. Type of test: biochemical. The conditions noted are these: 0.1 mM sodium linoleate, 234 nm. The method, then:
The compounds tested were dissolved in DMSO and preincubated for 4 min at 28 °C in the presence of 753 U/mL 5-soybean lipoxygenase (5-LOX). The enzyme reaction was triggered by addition of a final concentration of 0.1 mM sodium linoleate. The conversion of sodium linoleate 13-hydrouperoxylinoleic acid was measured at 234 nm. Absorbance was measured at time 0 and 3 min.

The structures appear in SMILES notation. A value given as a limit tells only on which side of the number the result lay.

On to `COc1cc(/C=c2\sc3nc(C45CC6CC(CC(C6)C4)C5)nn3c2=O)ccc1O` [Compound 6], for which, on human recombinant COX-2, the half-inhibitory concentration (IC50) is greater than 50 µM and the inhibition at 200 µM was found to be 66%. This compound gave an inhibition in vivo at 10 µmol/kg in test [1] of 40 to 49%. Further, on ovine COX-1, the inhibition at 200 µM came out at 26.2%. The “LOX (%) inhibition” value on soybean lipoxygenase turned out to be 6.67%.
As to `COc1cc(/C=c2\sc3nc(C45CC6CC(CC(C6)C4)C5)nn3c2=O)cc(OC)c1O` [Compound 7], the inhibition at 200 µM at human recombinant COX-2 was 25%; on ovine COX-1, 22%. In test [1], this compound displayed an inhibition in vivo at 10 µmol/kg of 36%. For the same compound, on soybean lipoxygenase, the “LOX (%) inhibition” value worked out at 16.13%.
